# Tested on: human platelet rich plasma
# Assay: Platelet aggregation assay (platelet rich plasma, PRP)
# Assay type: cell-based
# Settings: concentration which inhibits platelet aggregation by 50% relative to control, ester prodrugs preincubated with porcine liver esterase, ADP-induced
# Experimental: Platelet Aggregation Assay: Venous blood was obtained from the arm of a healthy human donor who was drug-free and aspirin-free for at least two weeks prior to blood collection. Blood was collected into 10 mL citrated Vacutainer tubes. The blood was centrifuged for 15 minutes at 150×g at room temperature, and platelet-rich plasma (PRP) was removed. The remaining blood was centrifuged for 15 minutes at 1500×g at room temperature, and platelet-poor plasma (PPP) was removed. Samples were assayed on a aggregometer (PAP-4 Platelet Aggregation Profiler), using PPP as the blank (100% transmittance). 200 μL of PRP was added to each micro test tube, and transmittance was set to 0%. 20 μL of various agonists (ADP, collagen, arachidonate, epinephrine, thrombin) were added to each tube, and the aggregation profiles were plotted (% transmittance versus time). The results are expressed as % inhibition of agonist-induced platelet aggregation. […] Percent inhibition is calculated using percent aggregation in the presence of the test compound divided by percent aggregation of control, times 100. […]
# Platelet Aggregation Assay; Venous blood was obtained from the arm of a healthy human donor who was drug-free and aspirin-free for at least two weeks prior to blood collection. […] The results are expressed as % inhibition of agonist-induced platelet aggregation. […]
smiles,measurement,value
"CCNC(=N)c1ccc(C2=NOC(CC(=O)NCCC(=O)O)C2)cc1 (racemic) [Example 23, 5(R,S)-3-[3-(4-N-ethylamidinophenyl)isoxazolin-5-ylacetyl]aminopropanoic acid]",IC50,< 10 µM
